Measurements from patent US11691960B2, “2-[thiophen-2-yl)formamido]-N-(phenyl)-2-methylpropanamide derivatives and the use thereof as medicament” (Boehringer Ingelheim International GmbH, priority 2020, dated 2023).

How the values were obtained:
[1] = target: MDR1 (P-gp) (Homo sapiens (Human), UniProt P08183); assay: Assay E: MDCK assay MDR-1 (P-gp); assay type: in vitro ADME; conditions: for efflux ratio at 2 h, 10 μM: human, MDCK-MDR1, pH 7.4, Table 7, final test concentration 10 μM, read-out: MDCK-MDR1 efflux ratio (Assay E)
Chain of MDR1 (P-gp) (P08183 whole entry): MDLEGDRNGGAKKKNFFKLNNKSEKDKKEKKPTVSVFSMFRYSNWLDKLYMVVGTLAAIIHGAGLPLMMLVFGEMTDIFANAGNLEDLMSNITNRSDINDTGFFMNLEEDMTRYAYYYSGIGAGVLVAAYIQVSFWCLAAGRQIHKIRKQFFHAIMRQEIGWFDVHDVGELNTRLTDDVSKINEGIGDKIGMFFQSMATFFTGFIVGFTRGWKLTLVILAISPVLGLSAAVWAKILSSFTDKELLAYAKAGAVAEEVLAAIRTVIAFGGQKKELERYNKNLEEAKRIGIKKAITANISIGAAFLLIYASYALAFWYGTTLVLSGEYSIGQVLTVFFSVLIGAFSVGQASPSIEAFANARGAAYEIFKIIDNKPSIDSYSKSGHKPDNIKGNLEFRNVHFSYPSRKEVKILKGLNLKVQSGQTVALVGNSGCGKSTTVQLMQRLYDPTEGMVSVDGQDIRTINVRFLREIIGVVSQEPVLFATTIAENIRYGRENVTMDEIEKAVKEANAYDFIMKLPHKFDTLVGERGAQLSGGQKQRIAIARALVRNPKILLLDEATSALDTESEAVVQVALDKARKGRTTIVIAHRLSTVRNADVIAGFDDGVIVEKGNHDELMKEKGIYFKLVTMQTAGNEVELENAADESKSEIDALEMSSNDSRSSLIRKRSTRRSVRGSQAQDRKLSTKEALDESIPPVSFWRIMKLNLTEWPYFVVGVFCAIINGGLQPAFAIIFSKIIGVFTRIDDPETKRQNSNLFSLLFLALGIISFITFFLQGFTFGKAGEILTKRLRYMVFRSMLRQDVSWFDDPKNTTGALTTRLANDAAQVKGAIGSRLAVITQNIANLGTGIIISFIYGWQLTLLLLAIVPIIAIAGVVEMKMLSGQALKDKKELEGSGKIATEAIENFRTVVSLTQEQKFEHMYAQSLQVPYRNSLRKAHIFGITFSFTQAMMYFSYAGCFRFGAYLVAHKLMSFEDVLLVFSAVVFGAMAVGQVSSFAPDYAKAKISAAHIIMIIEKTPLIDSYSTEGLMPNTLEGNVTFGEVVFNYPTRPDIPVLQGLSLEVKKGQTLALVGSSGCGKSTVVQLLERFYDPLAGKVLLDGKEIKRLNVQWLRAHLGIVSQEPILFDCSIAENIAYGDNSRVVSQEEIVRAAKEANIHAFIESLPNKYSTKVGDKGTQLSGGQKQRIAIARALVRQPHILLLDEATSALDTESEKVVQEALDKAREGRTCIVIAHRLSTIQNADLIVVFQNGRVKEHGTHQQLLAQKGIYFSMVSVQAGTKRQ
Method: The MDCK assays provide information on the potential of a compound to pass the blood brain barrier. Permeability measurements across polarized, confluent MDCK-MDR1 cell monolayers grown on permeable filter supports are used as an in vitro absorption model: apparent permeability coefficients (PE) of the compounds across the MDCK-MDR1 cell monolayers are measured (pH 7.4, 37° C.) in apical-to-basal (AB) and basal-to-apical (BA) transport direction. The AB permeability (PEAB) represents drug absorption from the blood into the brain and the BA permeability (PEBA) drug efflux from the brain back into the blood via both, passive permeability as well as active transport mechanisms mediated by efflux and uptake transporters that are expressed on the MDCK-MDR1 cells, predominantly by the overexpressed human MDR1. Identical or similar permeabilities in both transport directions indicate passive permeation, vectorial permeability points to additional active transport mechanisms. Higher PEBA than PEAB (PEBA/PEAB >3) indicates the involvement of active efflux mediated by MDR1, which might compromise the goal to achieve sufficient brain exposure.
Assay E. MDCK assay MDR-1 (P-gp)
Apparent permeability coefficients (Papp) of the compounds across MDCK-MDR1 monolayers (MDCKII cells transfected with human MDR1 gene) are measured in apical-to-basal (AB) and basal-to-apical (BA) direction.
MDCK-MDR1 cells (6×10^5 cells/cm^2) are seeded onto filter inserts (Corning, Transwell, polycarbonate, 0.4 μm pore size) and cultured for 9 to 10 days. Compounds dissolved in DMSO stock solution (1-20 mM) are diluted with HTP-4 buffer (128.13 mM NaCl, 5.36 mM KCl, 1 mM MgSO4, 1.8 mM CaCl2, 4.17 mM NaHCO3, 1.19 mM Na2HPO4, 0.41 mM NaH2PO4, 15 mM HEPES, 20 mM glucose, pH 7.4) supplemented with 0.25% BSA to prepare the transport solutions, resulting in a final test concentration of 1 μM or 10 μM and a final DMSO content of 0.5%. The transport solution is applied to the apical or basolateral donor side for measuring A-B or B-A permeability, respectively. The receiver side contains HTP-4 buffer supplemented with 0.25% BSA. Samples are collected at the start and end of experiment from the donor and at various time intervals for up to 2 hours from the receiver side for concentration measurement by HPLC-MS/MS. Sampled receiver volumes are replaced with fresh receiver solution.
All data reported for Assay E were measured with a final test concentration of 10 μM.

[2] = test system: human hepatocytes; assay: Assay D: metabolic stability in human hepatocytes; assay type: in vitro ADME
Method: Assay D. Assessment of Metabolic Stability in Human Hepatocytes
The metabolic degradation of the test compound is assayed in a hepatocyte suspension. After recovery from cryopreservation, human hepatocytes are incubated in Dulbecco's modified eagle medium supplemented with 3.5 μg glucagon/500 mL, 2.5 mg insulin/500 mL and 3.75 mg/500 mL hydrocortisone) containing 5% or 50% human serum or in absence of serum.
Following a 30 min preincubation in a cell culture incubator (37° C., 10% CO2), 5 μl of test compound solution (80 μM; derived from a 2 mM DMSO stock solution by dilution 1:25 with medium) are added into 395 μl hepatocyte suspension, resulting in a final cell density of 1 Mio cells/mL, a final test compound concentration of 1 μM, and a final DMSO concentration of 0.05%.
The cells are incubated for six hours (incubator, orbital shaker) and samples (25 μl) are removed from the incubation after 0, 0.5, 1, 2, 4 and 6 hours. Samples are transferred into acetonitrile and pelleted by centrifugation (5 min). The supernatant is transferred to a new 96-deepwell plate, evaporated under nitrogen and resuspended prior to analysis of decline of parent compound by HPLC-MS/MS.
CLint is calculated as follows: CL_INTRINSIC=k/CD×1000/60 k: slope of the regression line for parent decline [h^−1], CD: cell density of vital cells [10e6 cells/mL],
The calculated in vitro hepatic intrinsic clearance is scaled up to the intrinsic in vivo hepatic Clearance and used to predict hepatic in vivo blood clearance (CL) by the use of a liver model (well stirred model): CL_INTRINSIC_INVIVO [ml/min/kg]=(CL_INTRINSIC [μL/min/10e6 cells]×hepatocellularity [10e6 cells/g liver]×liver factor [g/kg bodyweight])/1000 CL[ml/min/kg]=CL_INTRINSIC_INVIVO [ml/min/kg]×hepatic blood flow [ml/min/kg]/(CL_INTRINSIC_INVIVO[ml/min/kg]+hepatic blood flow [ml/min/kg])
Results are expressed as percentage of hepatic blood flow: QH[%]=CL[ml/min/kg]/hepatic blood flow [ml/min/kg])
Hepatocellularity, human: 120×10e6 cells/g liver
Liver factor, human: 25.7 g/kg bodyweight
Blood flow, human: 20.7 ml/(min×kg)

[3] = target: human androgen receptor (Homo sapiens (Human), UniProt P10275); assay: Assay B: human androgen receptor luciferase reporter assay (Indigo Biosciences); assay type: cell-based; conditions: for Selectivity Assay B/Assay A: ratio IC50 androgen receptor / IC50 IDO1
Chain of human androgen receptor (P10275 whole entry): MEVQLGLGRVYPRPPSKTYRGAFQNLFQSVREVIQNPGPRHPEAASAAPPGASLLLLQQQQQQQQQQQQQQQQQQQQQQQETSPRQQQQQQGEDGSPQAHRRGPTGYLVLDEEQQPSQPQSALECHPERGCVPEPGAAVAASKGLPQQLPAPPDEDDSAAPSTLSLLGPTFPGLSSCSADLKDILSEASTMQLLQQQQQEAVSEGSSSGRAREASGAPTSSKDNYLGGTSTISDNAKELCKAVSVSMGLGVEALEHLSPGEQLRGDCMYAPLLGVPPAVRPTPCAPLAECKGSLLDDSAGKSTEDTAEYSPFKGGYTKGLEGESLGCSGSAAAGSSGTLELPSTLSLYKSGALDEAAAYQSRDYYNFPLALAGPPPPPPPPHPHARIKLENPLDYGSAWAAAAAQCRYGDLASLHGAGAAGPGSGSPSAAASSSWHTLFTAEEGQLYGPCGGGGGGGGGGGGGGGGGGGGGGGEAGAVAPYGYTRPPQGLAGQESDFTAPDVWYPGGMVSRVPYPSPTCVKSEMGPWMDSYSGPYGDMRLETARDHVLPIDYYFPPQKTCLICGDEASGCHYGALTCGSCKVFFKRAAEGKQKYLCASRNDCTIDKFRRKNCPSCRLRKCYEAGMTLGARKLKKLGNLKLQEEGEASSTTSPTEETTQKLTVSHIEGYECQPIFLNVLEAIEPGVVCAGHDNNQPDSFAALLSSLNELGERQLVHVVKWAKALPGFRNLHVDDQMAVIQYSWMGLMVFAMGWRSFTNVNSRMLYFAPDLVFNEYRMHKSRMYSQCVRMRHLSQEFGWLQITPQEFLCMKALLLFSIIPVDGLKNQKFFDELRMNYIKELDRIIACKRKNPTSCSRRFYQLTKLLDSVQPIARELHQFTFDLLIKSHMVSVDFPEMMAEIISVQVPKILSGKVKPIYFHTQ
From the text: Assay B. In Vitro Testing of Androgen Receptor Potency:
The human androgen receptor (AR) assay was run using Product #IB03001 from Indigo Biosciences. The cell line provided in this kit carries a reporter gene, induced upon AR stimulation. This reporter gene is cDNA encoding for beetle luciferase, a 62 kD protein originating from the North American firefly (Photinus pyralis). This luciferase catalyzes the mono-oxidation of D-luciferin yielding oxyluciferin, adenosine monophosphate, pyrophosphate, CO2, and photon emission. The luminescence intensity of the reaction is quantified using a luminometer.
To run the assay, the cells are thawed by adding pre-warmed cell recovery medium to each tube, then placed in a 37° C. water bath. 30000 viable cells in 200 μl are plated (collagen coated plates) and incubated at 37° C., ≥85% humidity, 5% CO2 for 24 hours. Media is replaced with compound screening medium. Cells are then challenged with 125 pM (EC80) 6a-Fl Testosterone and compounds are applied in half logarithmic dilutions from 10 μM to 10 nM. Assay plates are then incubated at 37° C., ≥85% humidity, 5% CO2 for 22-24 hours. Media is replaced with luciferase detection reagent and allowed 5 minutes to equilibrate prior to luminescence quantification.
Data Analysis consisted of calculating percentage of control between 100% (Negative control:6a-Fl Testosterone) and 0 (positive control: no 6a-FL Testosterone). Fitting of normalized values was made 4-Parameter sigmoidal binding curve (Log[conc]) vs. signal.

SMILES | in vitro efflux, MDCK-MDR1 (in words) [1] | efflux ratio at 2 h, 10 μM [1] | metabolic stability in human hepatocytes (in words) [2] | Selectivity Assay B/Assay A [3] | IC50 ([3]; challenge with 125 pM (EC80) 6a-Fl Testosterone, mean +− standard deviation)
CC(C)(NC(=O)c1ccc(Cl)s1)C(=O)Nc1ccc(Cl)c(F)c1 [Example 3, 2-[(5-chlorothiophen-2-yl)formamido]-N-(4-chloro-3-fluorophenyl)-2-methylpropanamide] | neither in vitro nor in vivo efflux | 0.5 | metabolically stable | 33 | –
CC(C)(NC(=O)c1ccc(Cl)s1)C(=O)Nc1ccc(Br)cc1 [Example 4, 2-[(5-chlorothiophen-2-yl)formamido]-N-(4-bromophenyl)-2-methylpropanamide] | neither in vitro nor in vivo efflux | 0.5 | metabolically stable | >42 | > 10 µM
